# According to BindingDB's records for PubMed 35144038 (Shaoxing University, 2022):
# Biological target: High affinity cGMP-specific 3',5'-cyclic phosphodiesterase 9A (Homo sapiens, UniProt O76083)
# Test: Inhibition of recombinant human PDE9A1 by radiometric assay
# Chain of High affinity cGMP-specific 3',5'-cyclic phosphodiesterase 9A (O76083 whole entry): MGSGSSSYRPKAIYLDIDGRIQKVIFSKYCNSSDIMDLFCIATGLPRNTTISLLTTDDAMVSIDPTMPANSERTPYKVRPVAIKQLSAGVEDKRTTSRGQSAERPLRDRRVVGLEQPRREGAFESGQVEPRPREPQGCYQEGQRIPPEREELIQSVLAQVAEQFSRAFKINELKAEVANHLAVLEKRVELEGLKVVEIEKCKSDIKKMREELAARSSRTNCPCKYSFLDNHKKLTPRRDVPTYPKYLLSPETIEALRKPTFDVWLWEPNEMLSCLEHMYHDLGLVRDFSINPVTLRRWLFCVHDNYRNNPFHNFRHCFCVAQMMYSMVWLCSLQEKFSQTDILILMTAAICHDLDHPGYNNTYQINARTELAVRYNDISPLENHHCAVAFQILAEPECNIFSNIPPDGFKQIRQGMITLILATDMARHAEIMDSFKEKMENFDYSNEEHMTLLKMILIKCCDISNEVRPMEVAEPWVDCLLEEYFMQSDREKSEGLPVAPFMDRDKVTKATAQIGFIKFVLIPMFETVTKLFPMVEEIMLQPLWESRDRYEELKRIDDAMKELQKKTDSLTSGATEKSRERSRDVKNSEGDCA
smiles,measurement,value
"C[C@@H]1CN(Cc2ncccn2)C[C@H]1c1cn2c(C3CCOCC3)ncc2c(=O)[nH]1 [US10513524, Compound (P3]",IC50,8.2 nM
